Series [1] has as its target T1, Signal transducer and activator of transcription 6 (Homo sapiens) (UniProt P42226).
T1 sequence (whole entry): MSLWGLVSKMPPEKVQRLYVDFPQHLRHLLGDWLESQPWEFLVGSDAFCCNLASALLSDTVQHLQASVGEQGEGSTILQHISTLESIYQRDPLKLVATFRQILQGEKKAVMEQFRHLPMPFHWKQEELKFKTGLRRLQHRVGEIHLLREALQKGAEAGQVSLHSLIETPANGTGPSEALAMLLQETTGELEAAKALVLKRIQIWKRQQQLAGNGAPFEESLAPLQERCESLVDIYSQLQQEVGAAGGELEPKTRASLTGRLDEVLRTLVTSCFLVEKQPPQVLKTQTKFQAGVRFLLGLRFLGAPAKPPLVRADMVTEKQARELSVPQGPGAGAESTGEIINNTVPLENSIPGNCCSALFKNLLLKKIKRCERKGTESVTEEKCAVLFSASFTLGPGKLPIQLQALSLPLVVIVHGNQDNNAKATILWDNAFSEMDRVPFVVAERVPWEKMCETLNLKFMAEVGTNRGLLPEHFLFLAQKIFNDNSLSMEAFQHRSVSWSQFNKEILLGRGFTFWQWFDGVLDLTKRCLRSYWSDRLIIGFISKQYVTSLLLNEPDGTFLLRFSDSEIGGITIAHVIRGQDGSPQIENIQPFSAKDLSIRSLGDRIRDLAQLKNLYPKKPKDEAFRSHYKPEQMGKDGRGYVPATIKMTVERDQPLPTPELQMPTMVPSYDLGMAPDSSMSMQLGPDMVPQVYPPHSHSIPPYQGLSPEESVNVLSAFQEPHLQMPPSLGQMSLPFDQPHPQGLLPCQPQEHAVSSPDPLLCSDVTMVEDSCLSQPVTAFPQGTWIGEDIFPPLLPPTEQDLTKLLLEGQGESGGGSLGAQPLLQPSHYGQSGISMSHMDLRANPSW
As to the kind of experiment: Inhibition of human N-terminal HA/myc tagged STAT6 expressed in 293-EBNA cells assessed as effect on STAT6 dimer configuration after 1 hr by immunoblot analysis. The class given is cell-based. On the technique in general: A western blot detects proteins with antibodies after separation by electrophoresis.

For series [2], the target named is T1, Signal transducer and activator of transcription 6 (Homo sapiens). The series is described as follows: Inhibition of human STAT6 expressed in 293-EBNA cells assessed as inhibition of IL4-induced STAT6 transcriptional activation at 10 uM after 1 hr by Photinus pylaris luciferase reporter gene assay. The class given is cell-based. (A reporter such as luciferase makes a cellular process visible.)

Series [3] addresses T2, Signal transducer and activator of transcription 6 (Homo sapiens, UniProt P42226).
T2 sequence (P42226 whole entry): T1 sequence (whole entry)
As to the kind of experiment: Binding affinity at human recombinant STAT6 by SPR analysis. For orientation: In SPR one partner is held on a chip, and binding of the other changes the refractive index at the surface.

For series [4], the target named is Tyrosine-protein kinase JAK2 (Homo sapiens) (UniProt O60674). As to the kind of experiment: Inhibition of JAK2 up to 10 uM after 30 mins by colorimetric ELISA.
Series [5] can be described thus: Cytotoxicity against human 293-EBNA cells assessed as effect on luciferase activity at 10 uM after 1 hr by Renilla reniformis luciferase reporter gene assay. Type of series: cell-based.
The target in series [6] is T1, Signal transducer and activator of transcription 6 (Homo sapiens). The series is described as follows: Inhibition of IL-4-induced human STAT6 tyrosine phosphorylation expressed in 293-EBNA cells at 10 uM incubated for 1 hr prior to IL-4-induction measured after 6 hrs by Western blot analysis. The class given is cell-based.
Series [7] shares this target. As to the kind of experiment: Inhibition of interaction of human recombinant STAT6 with tyrosine phosphorylated IL-4Ralpha peptide at 20 uM after 1 hr by ELISA.
Series [8] is described as follows: Cytotoxicity against human 293-EBNA cells assessed as effect on luciferase activity at 10 uM after 1 hr by Photinus reniformis luciferase reporter gene assay. The class given is cell-based.
The target in series [9] is T1, Signal transducer and activator of transcription 6 (Homo sapiens). The series is described as follows: Inhibition of human STAT6 expressed in 293-EBNA cells assessed as inhibition of IL4-induced STAT6 transcriptional activation at 10 uM after 1 hr by Renilla reniformis luciferase reporter gene assay. The class given is cell-based.
Series [10] concerns the target T2, Signal transducer and activator of transcription 6. As to the kind of experiment: Inhibition of human STAT6 expressed in 293-EBNA cells assessed as inhibition of IL4-induced STAT6 transcriptional activation after 1 hr by Photinus pylaris luciferase reporter gene assay. The class given is cell-based.
For series [11], the target named is T1, Signal transducer and activator of transcription 6 (Homo sapiens). As to the kind of experiment: Inhibition of human N-terminal HA/myc tagged STAT6 expressed in 293-EBNA cells assessed as inhibition of IL-4-induced STAT6 inactive dimer-tyrosine phosphorylation after 1 hr by immunoblot analysis. Type of series: cell-based.
Series [12] deals with Signal transducer and activator of transcription 6 (Homo sapiens) (UniProt P42226). As to the kind of experiment: Inhibition of human STAT6 expressed in BEAS2B cells assessed as inhibition of IL4-induced STAT6 transcriptional activation.
Series [13] has the same target. The series is described as follows: Inhibition of human STAT6 expressed in BEAS2B cells assessed as IL4-induced eotaxin-3 secretion at 10 uM after 24 hrs by ELISA.
Series [14] shares this target. The series is described as follows: Inhibition of human STAT6 expressed in BEAS2B cells assessed as IL4-induced eotaxin-3 secretion after 24 hrs by ELISA.
The target is the same in series [15]. The series is described as follows: Inhibition of human STAT6 expressed in BEAS2B cells assessed as […]/TNFalpha-induced eotaxin-3 secretion in presence of TNFalpha at 10 uM after 24 hrs by ELISA.
The target is the same in series [16]. The series is described as follows: Inhibition of human STAT6 expressed in BEAS2B cells assessed as IL4/TNFalpha-induced eotaxin-3 secretion at 10 uM after 24 hrs by ELISA.
For series [17] the target is unchanged. The series is described as follows: Inhibition of human STAT6 expressed in BEAS2B cells assessed as […]-induced eotaxin-3 secretion at 10 uM after 24 hrs by ELISA.

From ChEMBL document CHEMBL2203017, “STAT6 phosphorylation inhibitors block eotaxin-3 secretion in bronchial epithelial cells” (Bioorg Med Chem, 2012) come the findings set out here.

Active and inactive are the calls of the source. The rule behind the calls is not given here.

Chain of Tyrosine-protein kinase JAK2 (Homo sapiens) (O60674 whole entry): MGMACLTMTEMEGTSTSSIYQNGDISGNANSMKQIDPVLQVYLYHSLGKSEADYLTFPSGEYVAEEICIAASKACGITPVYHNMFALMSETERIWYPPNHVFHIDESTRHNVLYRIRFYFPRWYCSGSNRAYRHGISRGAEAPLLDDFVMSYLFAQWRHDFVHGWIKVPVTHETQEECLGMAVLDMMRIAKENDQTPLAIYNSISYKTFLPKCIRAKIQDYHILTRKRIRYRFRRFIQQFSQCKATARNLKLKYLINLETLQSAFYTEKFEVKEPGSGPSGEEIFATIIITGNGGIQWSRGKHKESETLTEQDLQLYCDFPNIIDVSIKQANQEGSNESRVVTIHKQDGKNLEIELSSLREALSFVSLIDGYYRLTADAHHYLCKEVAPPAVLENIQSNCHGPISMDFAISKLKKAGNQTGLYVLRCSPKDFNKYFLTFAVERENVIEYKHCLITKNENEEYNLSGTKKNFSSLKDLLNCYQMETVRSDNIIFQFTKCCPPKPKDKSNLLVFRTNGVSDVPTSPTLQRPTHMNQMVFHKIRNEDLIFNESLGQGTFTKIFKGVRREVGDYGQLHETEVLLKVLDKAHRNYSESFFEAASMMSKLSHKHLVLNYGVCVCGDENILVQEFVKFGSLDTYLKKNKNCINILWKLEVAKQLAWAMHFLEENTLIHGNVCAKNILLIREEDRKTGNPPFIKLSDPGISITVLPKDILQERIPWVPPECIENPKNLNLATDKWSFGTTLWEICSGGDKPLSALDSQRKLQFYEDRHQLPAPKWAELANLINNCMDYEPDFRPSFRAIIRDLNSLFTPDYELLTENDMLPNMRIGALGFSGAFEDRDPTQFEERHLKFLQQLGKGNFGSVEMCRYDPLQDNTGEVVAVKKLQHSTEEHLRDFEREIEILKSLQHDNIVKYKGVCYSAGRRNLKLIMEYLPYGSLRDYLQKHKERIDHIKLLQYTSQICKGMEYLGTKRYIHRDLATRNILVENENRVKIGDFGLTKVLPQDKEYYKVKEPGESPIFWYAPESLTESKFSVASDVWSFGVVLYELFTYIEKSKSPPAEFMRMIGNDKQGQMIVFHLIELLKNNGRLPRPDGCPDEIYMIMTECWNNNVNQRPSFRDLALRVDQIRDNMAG

Consider `CC(C)[C@@H](C)NC(=O)c1cc(-c2cc3ccccc3s2)cc(C(=O)NCCc2ccccn2)n1`, for which the inhibition entry in [1], in [4] and in [7] was “inactive” throughout. Besides, the inhibition entry in series [2], in series [6], in series [9] and in series [11] was “Active” in each case. Moreover, the Kd (commonly the constant that tells how readily two partners part at equilibrium) in series [3] worked out at 701 nM. Further, the Activity result in [5] and in series [8] was “Non-toxic” in each case. In series [10], the IC50 – broadly, the midpoint of a concentration-inhibition curve – stood at 3200 nM.

As for `CN(CCc1ccccc1)C(=O)c1csc2c1CCC/C2=N/O`, the inhibition result in series [1], in [6], in [7] and in [11] was “inactive” each time. Also, the equilibrium dissociation constant (Kd) in series [3] was 74000 nM.

With `CC(C)[C@@H](C)NC(=O)c1cc(-c2cc3ccccc3n2C)cc(C(=O)NCCc2ccccn2)n1`, the inhibition entry in series [1], in [4] and in [7] was “inactive” in each case. In addition, the inhibition result in series [12], in series [13], in series [2], in [6], in series [9] and in series [15] was “Active” throughout. In addition, the inhibition result in series [16], in series [17] and in series [11] was “Active” in each case. The Kd in series [3] amounted to 656 nM. In addition, the Activity result in series [5] and in [8] was “Non-toxic” in each case. Further, the half-inhibitory concentration (IC50) worked out at 2740 nM in [14] and 2700 nM in series [10].
